Measurements as given in patent publication EP0158513A2, “Antiviral compounds” (THE WELLCOME FOUNDATION LIMITED, priority 1984, dated 1985).
Converted amounts (≈) assume the structure as drawn.

How the values were obtained:
physchem = format: physicochemical; conditions: 25 °C, water
Excerpt: In UK Patent Specification 2130204 we describe certain purine derivatives which are characterised by the presence of a hydrogen atom in the 6- position of the purine nucleus, and which can be readily converted in vivo by the action of enzymes of the molybdo-flavo-protein type (especially xanthine oxidase/dehydrogenase or aldehyde oxidase) into the corresponding 6-hydroxy purine derivatives having antiviral activity. […] This improved water-solubility enables 6-deoxyacyclovir to be used in a greater variety of aqueous pharmaceutical formulations which require some solubilisation of the drug.

[1] = target: T1, xanthine oxidase from bovine milk (Bos taurus, UniProt P80457); experiment: oxidation by xanthine oxidase (enzyme studies); format: biochemical; conditions: compared with the 9-unsubstituted purine (2-aminopurine)
T1 construct: xanthine oxidase from bovine milk; from tissue; host or cells: bovine milk
T1 sequence (P80457 whole entry): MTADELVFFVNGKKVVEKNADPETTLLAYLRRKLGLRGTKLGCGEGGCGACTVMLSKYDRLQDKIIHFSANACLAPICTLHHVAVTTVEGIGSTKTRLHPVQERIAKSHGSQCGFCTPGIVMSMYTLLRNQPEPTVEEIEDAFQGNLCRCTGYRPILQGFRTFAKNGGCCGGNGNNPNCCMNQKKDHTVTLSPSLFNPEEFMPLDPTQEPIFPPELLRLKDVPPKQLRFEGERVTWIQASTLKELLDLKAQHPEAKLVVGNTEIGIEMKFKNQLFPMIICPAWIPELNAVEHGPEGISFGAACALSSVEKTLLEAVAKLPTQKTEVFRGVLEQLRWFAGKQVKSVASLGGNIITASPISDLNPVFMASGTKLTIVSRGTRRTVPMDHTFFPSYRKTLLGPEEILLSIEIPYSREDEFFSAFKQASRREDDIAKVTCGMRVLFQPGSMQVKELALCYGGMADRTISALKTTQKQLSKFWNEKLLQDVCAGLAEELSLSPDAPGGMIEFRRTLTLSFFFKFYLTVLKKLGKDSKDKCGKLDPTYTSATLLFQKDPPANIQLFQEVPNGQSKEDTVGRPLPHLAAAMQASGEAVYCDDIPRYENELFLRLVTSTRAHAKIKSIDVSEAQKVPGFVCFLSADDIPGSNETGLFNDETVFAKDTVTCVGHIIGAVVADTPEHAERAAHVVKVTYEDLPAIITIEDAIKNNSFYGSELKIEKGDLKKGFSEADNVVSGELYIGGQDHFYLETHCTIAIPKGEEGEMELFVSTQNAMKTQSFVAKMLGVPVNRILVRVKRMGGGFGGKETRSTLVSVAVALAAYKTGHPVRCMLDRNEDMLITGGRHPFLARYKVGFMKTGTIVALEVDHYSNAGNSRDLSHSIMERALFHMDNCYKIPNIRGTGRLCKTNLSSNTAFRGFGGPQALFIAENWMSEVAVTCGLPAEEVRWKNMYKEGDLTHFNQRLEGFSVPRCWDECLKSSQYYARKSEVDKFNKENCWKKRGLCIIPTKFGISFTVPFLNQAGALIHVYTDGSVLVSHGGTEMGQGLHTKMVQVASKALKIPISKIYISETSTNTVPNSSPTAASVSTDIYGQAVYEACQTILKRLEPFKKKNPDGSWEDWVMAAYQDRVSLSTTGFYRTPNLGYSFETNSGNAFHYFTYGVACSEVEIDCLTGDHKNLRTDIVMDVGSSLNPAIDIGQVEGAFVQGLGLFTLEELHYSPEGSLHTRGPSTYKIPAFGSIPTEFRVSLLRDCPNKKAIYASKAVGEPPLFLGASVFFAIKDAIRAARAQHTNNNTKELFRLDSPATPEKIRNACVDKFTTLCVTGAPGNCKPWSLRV
Excerpt: The discovery that the 6-hydrogen purines of formula (IA) referred to above can be readily converted into their corresponding 6-hydroxy analogues was surprising since in previous studies with xanthine oxidase from bovine milk (H.Lettre et al (1967) Biochem.Pharmacol., 16, 1747-1755; T.A. Krenitsky et al (1972) Arch. Biophys., 150, 585-599), it was shown that 9- substitution obliterates or greatly diminishes the rate at which a variety of purines are oxidised.

SMILES | solubility (physchem) [mg/mL] | rate of oxidation by the enzyme [1]
Nc1nc2c(ncn2COCCO)c(=O)[nH]1 [acyclovir, 9-(2-hydroxyethoxymethyl)guanine] | 1.23 (≈ 5.46 mM) | 
Nc1ncc2ncn(COCCO)c2n1 [6-deoxyacyclovir, 2-amino-9-(2-hydroxyethoxymethyl)purine] | 50 (≈ 239 mM) | at a faster rate than the 9-unsubstituted purine
